Reference: publication PMC12250713, “Identification and Characterization of Novel Inhibitors of Human Poly(ADP-Ribose) Polymerase-1” (Molecules, 2025)
Values joined by “and” are separate entries in the source; they are usually repeats but may differ in a detail not shown here. Identical values can stand only once. “Also recorded” adds a separate entry of the source.

Key:
hPARP-1 = biological target: T1, hPARP-1 (Homo sapiens, UniProt P09874); assay: hPARP-1 enzyme assay (NAD+ cycling reaction, resorufin fluorescence read-out); format: biochemical; settings: for IC50: 0.1-50 µM, mean ± SD, two biological replicates; for inhibition at 10 µM: concentration of 10 µM; for decline in PARPi activity compared with compound 54: replacement of the fluoride group; for PARPi activity at the enzyme level compared to the OLP core structure phthalazin-1(2H)-one: own IC50 vs literature IC50 12 µM; for reduction in the PARPi activity compared with compound 57: modification at the thiomethyl group
T1 construct: purchased Bio-Techne (Minneapolis, MN, USA)
T1 sequence (P09874 whole entry): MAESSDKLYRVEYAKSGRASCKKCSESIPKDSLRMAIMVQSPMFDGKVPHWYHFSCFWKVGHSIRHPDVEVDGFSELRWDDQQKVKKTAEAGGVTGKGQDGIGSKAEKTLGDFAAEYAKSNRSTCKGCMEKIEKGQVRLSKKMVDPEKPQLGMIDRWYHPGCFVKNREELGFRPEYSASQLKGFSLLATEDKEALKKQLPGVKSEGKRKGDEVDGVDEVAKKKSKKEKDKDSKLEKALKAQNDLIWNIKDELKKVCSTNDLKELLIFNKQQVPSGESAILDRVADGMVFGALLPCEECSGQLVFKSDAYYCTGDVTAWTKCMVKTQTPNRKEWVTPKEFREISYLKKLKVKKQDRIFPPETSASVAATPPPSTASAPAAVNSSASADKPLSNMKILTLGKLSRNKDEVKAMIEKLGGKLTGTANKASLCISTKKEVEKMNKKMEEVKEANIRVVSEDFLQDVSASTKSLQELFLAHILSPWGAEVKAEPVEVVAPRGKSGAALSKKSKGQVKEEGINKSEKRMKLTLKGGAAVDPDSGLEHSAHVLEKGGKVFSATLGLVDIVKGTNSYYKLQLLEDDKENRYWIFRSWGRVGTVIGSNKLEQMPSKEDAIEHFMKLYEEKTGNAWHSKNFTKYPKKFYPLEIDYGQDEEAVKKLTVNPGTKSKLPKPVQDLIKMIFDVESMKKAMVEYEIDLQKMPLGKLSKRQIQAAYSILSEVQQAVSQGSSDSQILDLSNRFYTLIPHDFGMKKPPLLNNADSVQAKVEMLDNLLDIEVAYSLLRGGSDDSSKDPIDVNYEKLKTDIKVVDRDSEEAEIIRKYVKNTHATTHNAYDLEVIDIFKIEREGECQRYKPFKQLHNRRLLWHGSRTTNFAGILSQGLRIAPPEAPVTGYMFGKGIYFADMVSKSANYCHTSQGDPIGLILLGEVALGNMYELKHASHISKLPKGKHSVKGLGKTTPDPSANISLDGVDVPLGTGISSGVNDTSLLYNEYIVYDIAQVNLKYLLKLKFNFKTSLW
Procedure: The putative PARP inhibitors, which were pre-selected in the in silico study, were subsequently evaluated by using an optimized biochemical hPARP-1 enzyme assay. The experiment was performed in black half-area 96-well plates. For the PARP reaction, 12.5 µL of PARP reaction solution were added. The solution was composed of 0.5 µg deoxyribonucleic acid (DNA) sodium salt from calf thymus, 2 U of recombinant hPARP-1, and 1 µL of the compound of interest in PARP reaction buffer (50 mM TRIS and 2 mM MgCl2 in ddH2O, pH = 8). These test compounds’ working solutions were prepared from 20 mM DMSO stock solutions and diluted using PARP reaction buffer to reach 25× of the required final concentration to be tested. […] Afterwards, 12.5 µL of NAD^+ solution were added to all wells to reach a final NAD^+ concentration of 50 nM, and to start the enzyme reaction.
Besides PARP reaction wells, NAD^+ calibration wells were included to measure the linearity of the detection of NAD^+ concentrations. In each well, 12.5 µL of NAD^+ calibration solution were added. The solution was composed of 0.5 µg deoxyribonucleic acid (DNA) sodium salt from calf thymus in PARP reaction buffer. Finally, 12.5 µL of decreasing concentrations of NAD^+ solution were added to the calibration wells (final concentrations: 50, 40, 30, 20, 10, 0 nM).
Subsequently, the assay plate including both the PARP reaction and NAD^+ calibration wells was gently shaken and incubated at 25 °C in the dark for 90 min. After incubation, 25 µL of detection solution were added to each well. […] The assay plate was again gently shaken and incubated at 25 °C in the dark for 40 min.
Following the aforementioned protocol, the compounds that were predicted by the in silico study as putative hPARP-1 inhibitors were tested at two different concentrations (1 and 10 µM). […] The IC50s were calculated by using GraphPad Prism software and a non-linear four-parametric regression function.

MDA-MB-468 cells = assay: cells; format: cell-based; settings: for cytotoxic activity as a monotherapy against MDA-MB-468: CV assay
Procedure: (§1) Cells were seeded in 96-well cell culture plates and were allowed to adhere for 24 h in a humidified atmosphere with 5% CO2 at 37 °C. Afterward, cells were treated with the test items at several concentrations for 72 h. […] After finalization of the intended 72 h treatment, the treatment solutions were discarded, and the cells were washed once with PBS. Subsequently, the cells were fixed by incubation in 4% (v/v) paraformaldehyde in PBS for 15 min at room temperature (RT). The fixing solution was discarded, and the cells were allowed to dry at RT for 15 min. The cells were stained with 0.1% (w/v) crystal violet in PBS for 15 min at RT, then washed with ddH2O and dried overnight at RT. […] The obtained absorbance data were normalized based on the negative and positive controls representing 100% and 0% cell viability, respectively. IC50 values were calculated by using a four-parametric non-linear regression analysis in GraphPad Prism software.
(§2) Finally, cell viability was determined by using the CV assay, and IC50 values were calculated as mentioned above.

BT-474 cells = assay: crystal violet (CV) cell viability assay, single and combined with TMZ; format: cell-based
Procedure: as §1, §2

hPARP-1 in BT-474 cells = biological target: T2, hPARP-1 in BT-474 cells (Homo sapiens, UniProt P09874); assay: fluorescence microscopy, competitive displacement of PARPi-FL; format: cell-based; settings: BT-474, 72 h with 100 µM compound 57 or 1.56 µM OLP, then 250 nM PARPi-FL 20 min
T2 construct: endogenous in cells; host or cells: BT-474
T2 sequence (P09874 whole entry): as above
Procedure: For the determination of the interaction of the proposed PARPi and the PARP binding pocket inside the treated cells, a fluorescence microscopic inspection was performed. Using a green fluorescently labeled molecule named PARPi-FL that is characterized by the ability to occupy specifically the binding pocket of the PARP enzyme. Moreover, in case of its competitive replacement by PARPi molecules a reduction in its fluorescent signal is detectable. Thus, cells were seeded in 6-well plates and incubated in a humidified atmosphere with 5% CO2 for 24 h at 37 °C. […] Subsequently, the treatment solutions were discarded, and the cells were washed with PBS. […] Finally, cells were imaged by using the GFP channel of an EVOS™ FL Auto Imaging System (Thermo Fisher Scientific, Waltham, MA, USA).

184B5 cells = assay: crystal violet (CV) cell viability assay, single and combined with TMZ; format: cell-based; settings: Homo sapiens, 184B5, 72 h; read-out: IC50 of TMZ, alone or combined
Procedure: as §1, §2

HCC1937 cells = assay: as above; format: cell-based; settings: Homo sapiens, HCC1937, 72 h; read-out: IC50 of TMZ, alone or combined
Procedure: as §1, §2

MCF-7 cells = assay: as above; format: cell-based; settings: Homo sapiens, MCF7, 72 h; read-out: IC50 of TMZ, alone or combined
Procedure: as §1, §2

## COc1cccc(Nc2nc3ccccc3c(=O)[nH]2)c1 [Compound 18]
hPARP-1
  IC50: 23.5 ± 8.74 µM
  inhibition at 10 µM: > 50%

## COc1ccc(C(=O)Nc2nc3c(c(=O)[nH]2)CCCC3)cc1 [Compound 21]
hPARP-1
  IC50: 14.9 ± 4.92 µM
  inhibition at 10 µM: > 50%
  decline in PARPi activity compared with compound 54: at least three-fold

## O=c1[nH]nc(CNc2ccc([N+](=O)[O-])cc2)c2ccccc12 [Compound 22]
hPARP-1
  IC50: 4.57 ± 4.89 µM
  inhibition at 10 µM: > 50%

## O=C(Nc1nc2c(c(=O)[nH]1)CCCC2)c1ccc(Cl)cc1 [Compound 32]
hPARP-1
  decline in PARPi activity compared with compound 54: at least three-fold

## Cc1ccc(C(=O)Nc2nc3c(c(=O)[nH]2)CCCC3)cc1 [Compound 34]
hPARP-1
  decline in PARPi activity compared with compound 54: at least three-fold

## COc1ccc(NCc2nnc(O)c3ccccc23)cc1 [Compound 45]
hPARP-1
  IC50: 3.01 ± 1.19 µM
  inhibition at 10 µM: > 50%

## O=C(Nc1nc2c(c(=O)[nH]1)CCCC2)c1ccc(F)cc1 [Compound 54]
hPARP-1
  IC50: 4.56 µM
  inhibition at 10 µM: > 50%
  PARPi activity at the enzyme level compared to the OLP core structure phthalazin-1(2H)-one: two-fold higher

## O=c1[nH]nc(-c2ccccc2)c2ccccc12 [Compound 56]
hPARP-1
  IC50: 6.61 ± 2.09 µM
  inhibition at 10 µM: > 50%

## CSc1nc2ccccc2c(=O)[nH]1 [Compound 57, 2-(methylthio)quinazolin-4(3H)-one]
hPARP-1
  IC50: 2.3 µM and 2.32 µM
  inhibition at 10 µM: > 50%
  PARPi activity at the enzyme level compared to the OLP core structure phthalazin-1(2H)-one: five-fold higher
hPARP-1; own IC50 vs literature IC50 5.8 µM
  fold higher hPARP-1-inhibiting activity compared to core structure quinazolin-4(3H)-one: 2.5 fold
MDA-MB-468 cells; 72 h
  cytotoxic activity as a monotherapy against MDA-MB-468: such an effect was not observed
MDA-MB-468 cells; co-treatment at IC10 (100 µM compound 57), 72 h
  synergistic improvement of the TMZ activity by co-treatment: did not induce a synergistic improvement
BT-474 cells; BT-474 cells, 72 h
  IC10 (CV cytotoxicity assay): 100 µM
hPARP-1 in BT-474 cells
  displacement of PARPi-FL from nuclear hPARP-1 (fluorescence): failed to reach the nuclei of BT-474 cells; also recorded: did not impact the fluorescent appearance of the stain

## N#CCc1n[nH]c(=O)c2ccccc12 [Compound 58]
hPARP-1
  IC50: 4.86 ± 0.63 µM
  inhibition at 10 µM: > 50%

## CSc1nc2ccccc2c(=O)n1C [Compound 62]
hPARP-1
  hPARP-1 inhibitor activity compared with compound 57 (SAR, in words): complete abolishment of hPARP-1 inhibitor activity
  IC50: > 10 µM

## CSc1nc2ccccc2c(=O)n1Cc1ccccc1 [Compound 63]
hPARP-1
  hPARP-1 inhibitor activity compared with compound 57 (SAR, in words): complete abolishment of hPARP-1 inhibitor activity
  IC50: > 10 µM

## COc1cc2nc(SC)[nH]c(=O)c2cc1OC [Compound 64]
hPARP-1
  hPARP-1 inhibitor activity compared with compound 57 (SAR, in words): dramatic decrease in activity
  IC50: > 10 µM

## CSc1nc2ccc([N+](=O)[O-])cc2c(=O)[nH]1 [Compound 65]
hPARP-1
  hPARP-1 inhibitor activity compared with compound 57 (SAR, in words): dramatic decrease in activity
  IC50: > 10 µM

## CSc1nc2cc([N+](=O)[O-])ccc2c(=O)[nH]1 [Compound 66]
hPARP-1
  hPARP-1 inhibitor activity compared with compound 57 (SAR, in words): dramatic decrease in activity
  IC50: > 10 µM

## C=CCSc1nc2ccccc2c(=O)[nH]1 [Compound 67]
hPARP-1
  IC50: > 10 µM
  reduction in the PARPi activity compared with compound 57: at least four-fold

## C#CCSc1nc2ccccc2c(=O)[nH]1 [Compound 68]
hPARP-1
  IC50: > 10 µM
  reduction in the PARPi activity compared with compound 57: at least four-fold

## O=c1[nH]c(SCCC(F)=C(F)F)nc2ccccc12 [Compound 69]
hPARP-1
  IC50: > 10 µM
  reduction in the PARPi activity compared with compound 57: at least four-fold

## O=C(c1cc(Cc2n[nH]c(=O)c3ccccc23)ccc1F)N1CCN(C(=O)C2CC2)CC1 [OLP, olaparib]
MDA-MB-468 cells; 72 h
  cytotoxic activity as a monotherapy against MDA-MB-468: good and selective cytotoxic activity
MDA-MB-468 cells; MDA-MB-468 cells, 72 h
  IC10 (CV cytotoxicity assay): 1.56 µM

## Cn1nnc2c(C(N)=O)ncn2c1=O [TMZ, temozolomide]
MDA-MB-468 cells; Homo sapiens, MDA-MB-468, 72 h, read-out: IC50 of TMZ, alone or combined
  IC50: 2060 ± 790 µM
184B5 cells
  IC50: 980 ± 820 µM
BT-474 cells; Homo sapiens, BT-474, 72 h, read-out: IC50 of TMZ, alone or combined
  IC50: 2210 ± 10 µM
HCC1937 cells
  IC50: 3740 ± 1500 µM
MCF-7 cells
  IC50: 3440 ± 1720 µM
